Measurements published in patent US11926640B2, “Prodrugs of glutamine analogs” (THE JOHNS HOPKINS UNIVERSITY, priority 2015, dated 2024).
“Also recorded” adds a separate entry of the source. Like-named read-outs stand apart in the source and are kept apart here. Values belong to the compound of their own block, whether it stands above or below them.

Assays:
[1] = in vitro metabolic stability in dog plasma; format: in vitro ADME; conditions: 30 min and 60 min
Method: Percentage remaining was calculated in the following manner.

[2] = in vitro metabolic stability in monkey plasma
[3] = in vitro metabolic stability in pig plasma; conditions: 30 min and 60 min
[4] = in vitro metabolic stability in human plasma
[5] = plasma and CSF pharmacokinetics of DON in monkeys after i.v. DON or 14b; format: in vivo, pigtail macaques; conditions: Monkey, FIG. 58B
Method: Pharmacokinetic Studies in Non-human primates. All monkey studies were conducted according to protocol (#PR15M298) approved by the Animal Care and Use Committee at Johns Hopkins University. Two female pigtail monkeys (approximately 3.5 kg, non-drug naive) were adjacently housed in stainless steel cages on a social interaction rack (contains 4 cages, each 32.5″ wide×28″ deep×32″ high) maintaining temperature of 64-84° F., humidity of 30-70% with alternating 14-10 hour light/dark cycle as per the USDA Animal Welfare Act (9 CFR. Parts 1, 2, and 3). Food was provided daily in amounts appropriate for the size and age of the animals and RO purified water provided ad libitum through an in-cage lixit valve. Food enrichment was provided Monday through Friday. Prior to drug administration, macaques were sedated with ketamine given as an intramuscular injection prior to test article administration. […]
Bioanalysis of DON. […] The mean predicted relative standard deviation for back calculated concentrations of the standards and QC's for all analytes were within the range of 85 to 115%, except for the lowest concentration which was within the range of 80 to 120% with an overall accuracy and precision of 6.7% and 6.6%, respectively.
Pharmacokinetic Analysis. […] Area under the curve (AUC) was calculated by log-linear trapezoidal rule to the end of sample collection (AUClast). […]

[6] = plasma and CSF pharmacokinetics of DON in swine after i.v. infusion; format: in vivo, Göttingen×Yucutan miniature swine; conditions: 60 min post-administration
Method: Compound: Compound 47 was dissolved in a sterile saline containing 5% ethanol and 5% Tween 80 on the date of administration.
Swine: Swine studies were conducted under a protocol approved by the Johns Hopkins Animal Care and Use Committee. Adult, female Göttingen×Yucutan miniature swine (Massachusetts General Hospital, MA) were housed in Johns Hopkins University facilities accredited by the Association for Assessment and Accreditation of Laboratory Animal Care International in compliance with the Animal Welfare Act, Animal Welfare Regulations, and the Public Health Service Policy on the Humane Care and Use of Laboratory Animals. Animals were maintained on a 14-h light and 10-h dark schedule, provided ad libitum water and a commercial miniswine diet (Teklad, Madison, WI) with environmental enrichment (fruit/vegetables) twice daily.

[7] = in vitro metabolic stability in mouse plasma
[8] = test system: 4T1 tumor cells; test: 4T1 breast cancer model; format: in vivo, BALB/c mice; conditions: single agent, about 1 mg/kg daily
Method: 4T1 tumor cells (0.1 million) were injected into the mammary fat pads of 8-week-old female BALB/c mice. Mice received vehicle (PBS) or 1 mg/kg compound 25 daily from day 5 to day 22. Photos were taken on day 30 after tumor inoculation (FIG. 57A). Tumor volume was measured 2-3 times weekly until WT mice were sacrificed (when size reached to 20 mm length or necrosis occurred). Day 0: 100K 4T1 cells s.c. in 4th mammary pad. Day 5-22: Daily compound 25.
4T1-Luc tumor cells (0.1 million) were injected into the mammary fat pads of 8-week-old female BALB/c mice. Mice received vehicle (PBS) or 1 mg/kg compound 25 daily from day 7. Anti-PD1 (5 mg/Kg) was administered on day 5, 8, and 12. Mice carrying 4T1-luc tumors are injected with Luciferin to measure luminescence from the tumor. IVIS imaging were taken on day 13.
4T1-Luc tumor cells (0.1 million) were injected into the mammary fat pads of 8-week-old female BALB/c mice. Mice received vehicle (PBS) or 1 mg/kg compound 25 daily from day 7 to day 16. Anti-PD1 (5 mg/Kg) was administered on day 5, 8, 12 and 17. Tumor volume was measured 2-3 times weekly until tumors were evaluated for tumor infiltrating cells on day 21. Tumor weights were measured on day 21. On day 21, the PD1 group tumor size looks like it was reduced, however, the result was not due to a tumor size reduction, but rather because one of the large tumor mice died.

[9] = test system: colon cancer cells; test: rechallenge of compound 25 treated mice with colon cancer cells; format: in vivo; conditions: mice previously treated with single agent
[10] = test system: MC38 colon cancer; test: MC38 tumor model; format: in vivo, mice; conditions: single agent
[11] = mouse, in vivo
[12] = pig microsomes
[13] = test system: EL4 mouse lymphoma; test: EL4 mouse lymphoma model; conditions: in vivo
[14] = human microsomes
[15] = Cmax, tumor to gut ratio and GI toxicity of 25 vs DON at equimolar doses in mice; conditions: 0.8 mg/kg (equivalent) daily for 5 days
[16] = mouse, in vivo; remark: listed apart in the source
[17] = test system: CT26 colon cancer; test: CT26 tumor model; format: in vivo, mice; conditions: single agent
[18] = test system: melanoma; test: melanoma growth model; conditions: in vivo
[19] = tolerability of daily treatment with DON or 25 in mice
[20] = test system: U87 human glioma cells; test: U87 flank xenograft mouse model of GBM; format: in vivo
Method: Mice Efficacy Studies. All mouse efficacy studies were conducted according to protocol #MO13M69 approved by the Animal Care and Use Committee at Johns Hopkins University. Female athymic (RH-Foxn1nu mice) mice between 25 and 30 g were obtained (Harlan Sprague Dawley Inc. Indianapolis. Indiana), and maintained on a 12 hour light-dark cycle with ad libitum access to food and water. U87 human glioma cells were injected s.c. (5×10^6 cells in […] of PBS) in four separate locations on the flanks of each mouse. When tumors grew to a mean volume of around 200 mm^3, mice were randomized into either vehicle (HEPES-buffered saline, i.p.) or DON (1; 0.8 mg/kg, i.p.). In one cohort, mice were administered a single dose of the appropriate solution two hours after which glutamine levels were quantified in the tumor as described previously (Le et al., 2012). In brief, tumors were harvested, snap frozen, and homogenized in liquid N, then subjected to metabolite extraction using methanol and DI water. Quantification was performed using Agilent 6520 Quadrupole-Time-of-Flight (Q-TOF) mass spectrometer with Agilent 1290 HPLC and using Agilent Mass Hunter and Agilent Qualitative and Quantitative Analysis Software packages. Glutamine content was averaged by group for each individual tumor (n=3-4/group), depicted as relative intensity, and analyzed by one-tailed t test. In a second cohort, efficacy experiments were conducted. Mice were injected once daily for six days; tumor volumes were measured using digital calipers and calculated according to the formula: [volume=(largest tumor dimension)×(smallest tumor dimension)^2×0.52] at 2, 4, and 6 days after the onset of treatment. Each individual tumor (n=8-10/group) was normalized to its pretreatment volume, averaged and analyzed by repeated measures two-way analysis of variance (ANOVA). If significant, a Bonferroni post hoc test was subsequently applied. Significance was defined as p<0.05.

[21] = 5-day i.v. toxicity comparison of DON and 38 in pigs; format: in vivo

stability in dog plasma (in words) [1]: highly stable
stability in monkey plasma (in words) ([2]; 30 min and 60 min): highly stable
PLASMA STABILITY Monkey ([2]; prodrug remaining within the 60 min incubation time, monkey plasma): 61%
stability in pig plasma (in words) [3]: highly stable
stability in human plasma (in words) ([4]; 30 min and 60 min): highly stable
PLASMA STABILITY Human ([4]; prodrug remaining within the 60 min incubation time, human plasma): 91%
CSF:plasma ratio of DON (in words) [5]: enhanced CSF:plasma ratio
stability in mouse plasma (in words) ([7]; 30 min and 60 min): rapidly metabolized
PLASMA STABILITY Mouse ([7]; prodrug remaining within the 60 min incubation time, mouse plasma): 0%
Compound: CC(C)OC(=O)[C@H](CCC(=O)C=[N+]=[N-])NC(=O)OC(C)OC(=O)C(C)(C)C (single isomer, unassigned) [Compound 14b, 1-Methylethyl 6-(1λ^5-diazynylidene)-N-({1-[(2,2-dimethylpropanoyl)oxy]ethoxy}carbonyl)-5-oxo-L-norleucinate]
CSF delivery of DON (in words) [6]: substantially higher amounts of DON to the CSF; also recorded: enhanced CSF delivery of DON
CSF:plasma ratio of DON (in words) [6]: increased CSF-to-plasma ratios; also recorded: enhanced CSF:plasma ratio

Compound: CCOC(=O)[C@H](CCC(=O)C=[N+]=[N-])NC(=O)[C@@H](N)CC(C)C [Compound 25, Ethyl 2-(2-amino-4-methylpentanamido)-6-diazo-5-oxohexanoate]
antitumor efficacy in 4T1 breast cancer model (in words) [8]: superior to CB-839; also recorded: robust response and improved overall survival; also recorded: inhibited the growth of mammary carcinoma tumor cells; also recorded: inhibits tumor growth
colon cancer cell proliferation upon rechallenge (in words) [9]: prevents colon cancer cell proliferation upon rechallenge
antitumor efficacy in MC38 tumor model (in words) [10]: complete and durable response; also recorded: inhibits colon cell proliferation and extends the survival of mice; also recorded: efficacious; also recorded: more efficacious than oxaliplatin
Cmax vs DON (in words) [11]: reduces Cmax
tumor to gut ratio vs DON (in words) [11]: enhances tumor to gut ratio
liver microsomal stability (in words) [12]: moderate-high stability
antitumor efficacy against lymphoma (in words) [13]: cure lymphoma; also recorded: efficacious
liver microsomal stability (in words) [14]: moderate-high stability
GI toxicity, jejunum-ileum histology (in words) [15]: causes less GI toxicity
blood counts (in words) [16]: some leukopenia
body weight (in words) [16]: No weight loss
bone marrow suppression (in words) [16]: no bone marrow suppression
renal and liver function (in words) [16]: unaffected
antitumor efficacy in CT26 tumor model (in words) [17]: superior to CB-839; also recorded: robust response and improved overall survival

Compound: [N-]=[N+]=CC(=O)CC[C@H](N)C(=O)O [DON, 6-diazo-5-oxo-L-norleucine]
effect on melanoma growth (in words) [18]: modest effect on inhibiting melanoma growth
blood counts (in words) ([19]; daily high dose treatment): pan-cytopenia
body weight (in words) ([19]; daily high dose treatment): weight loss
renal and liver function (in words) ([19]; high dose): unaffected
flank GBM tumor size (in words) ([20]; 0.8 mg/kg, i.p, q.d. days 1-6): dramatic reduction in tumor size
glutamine metabolism in tumor (endogenous glutamine accumulation) ([20]; 0.8 mg/kg, i.p., 2 hours post-administration, flank GBM tumors): inhibited glutamine metabolism
signs of toxicity (in words) ([20]; mice receiving DON 0.8 mg/kg, i.p, q.d.): significant signs of toxicity
antitumor efficacy against lymphoma (in words) [13]: cure lymphoma; also recorded: markedly inhibits lymphoma growth; also recorded: efficacious
GI toxicity, jejunum-ileum histology (in words) [15]: significant inflammation
macroscopic stomach toxicity (in words) ([21]; 5 days of dosing): more severe stomach toxicity
adverse clinical signs (in words) ([21]; DON 1.6 mg/kg vs 38 1.5 mg/kg, i.v. 2 h/day for 5 days, equivalent PBMC exposure): more adverse clinical signs; also recorded: more adverse clinical effects
